In patent US20260042731A1, “(2,4-DICHLOROPHENOXY)ACETIC ACID ANALOGS” (CORTEVA AGRISCIENCE LLC, priority 2022, published 2026):
Read-outs that look alike come from different tables or passages of the source.

What was measured:
[1] = system: Amaranthus rudis (AMATA), tall water hemp; assay: Postemergence herbicide evaluation, growth of Amaranthus rudis (AMATA); type: in vivo; conditions: Amaranthus tuberculatus, post-emergence, read-out: Ave. AMATA, percent reduction in plant size relative to the untreated control
[2] = system: Ambrosia artemisiifolia (AMBEL), common ragweed; assay: Postemergence herbicide evaluation, growth of Ambrosia artemisiifolia (AMBEL); type: in vivo; conditions: Ambrosia artemisiifolia, post-emergence, read-out: AVE. AMBEL, percent reduction in plant size relative to the untreated control
[3] = system: Abutilon theophrasti (ABUTH), velvetleaf; assay: Postemergence herbicide evaluation, growth of Abutilon theophrasti (ABUTH); type: in vivo; conditions: Abutilon theophrasti, post-emergence, read-out: AVE. ABUTH, percent reduction in plant size relative to the untreated control
[4] = system: Chenopodium album (CHEAL), common lambsquarters; assay: Postemergence herbicide evaluation, growth of Chenopodium album (CHEAL); type: in vivo; conditions: Chenopodium album, post-emergence, read-out: Ave. CHEAL, percent reduction in plant size relative to the untreated control
[5] = system: glyphosate resistant Conyza canadensis (L.) (ERICA), horseweed; assay: Postemergence herbicide evaluation, growth of Conyza canadensis (ERICA); type: in vivo; conditions: Erigeron canadensis, post-emergence, read-out: Ave. ERICA, percent reduction in plant size relative to the untreated control
[6] = Volatility of compounds measured by thermogravimetric analysis (TGA); type: physicochemical
[7] = system: weeds ABUTH, AMATA, AMBEL, CHEAL, ERICA; assay: Postemergence herbicide evaluation, overall average % weed control (ABUTH, AMATA, AMBEL, CHEAL, ERICA); type: in vivo; conditions: post-emergence, read-out: Overall Ave % Weed Control

N/C(=N\OC(=O)COc1ccc(Cl)cc1Cl)c1ccccc1 [Compound A3, N′-(2-(2,4-Dichlorophenoxy)acetoxy)benzimidamide]
pest or weed control at 280 g/ha ([1]; 168 h, 280 g ae/ha, 7 DAA): 75% | pest or weed control at 560 g/ha ([1]; 168 h, 560 g ae/ha, 7 DAA): 78% | pest or weed control at 280 g/ha ([1]; 336 h, 280 g ae/ha, 14 DAA): 75% | pest or weed control at 560 g/ha ([1]; 336 h, 560 g ae/ha, 14 DAA): 90% | pest or weed control at 280 g/ha ([1]; 504 h, 280 g ae/ha, 21 DAA): 83% | pest or weed control at 560 g/ha ([1]; 504 h, 560 g ae/ha, 21 DAA): 70% | pest or weed control at 280 g/ha ([2]; 168 h, 280 g ae/ha, 7 DAA): 63% | pest or weed control at 560 g/ha ([2]; 168 h, 560 g ae/ha, 7 DAA): 75% | pest or weed control at 280 g/ha ([2]; 336 h, 280 g ae/ha, 14 DAA): 78% | pest or weed control at 560 g/ha ([2]; 336 h, 560 g ae/ha, 14 DAA): 95% | pest or weed control at 280 g/ha ([2]; 504 h, 280 g ae/ha, 21 DAA): 90% | pest or weed control at 560 g/ha ([2]; 504 h, 560 g ae/ha, 21 DAA): 90% | pest or weed control at 280 g/ha ([3]; 168 h, 280 g ae/ha, 7 DAA): 53% | pest or weed control at 560 g/ha ([3]; 168 h, 560 g ae/ha, 7 DAA): 68% | pest or weed control at 280 g/ha ([3]; 336 h, 280 g ae/ha, 14 DAA): 55% | pest or weed control at 560 g/ha ([3]; 336 h, 560 g ae/ha, 14 DAA): 68% | pest or weed control at 280 g/ha ([3]; 504 h, 280 g ae/ha, 21 DAA): 58% | pest or weed control at 560 g/ha ([3]; 504 h, 560 g ae/ha, 21 DAA): 72% | pest or weed control at 280 g/ha ([4]; 168 h, 280 g ae/ha, 7 DAA): 75% | pest or weed control at 560 g/ha ([4]; 168 h, 560 g ae/ha, 7 DAA): 68% | pest or weed control at 280 g/ha ([4]; 336 h, 280 g ae/ha, 14 DAA): 83% | pest or weed control at 560 g/ha ([4]; 336 h, 560 g ae/ha, 14 DAA): 83% | pest or weed control at 280 g/ha ([4]; 504 h, 280 g ae/ha, 21 DAA): 85% | pest or weed control at 560 g/ha ([4]; 504 h, 560 g ae/ha, 21 DAA): 87% | pest or weed control at 280 g/ha ([5]; 168 h, 280 g ae/ha, 7 DAA): 68% | pest or weed control at 560 g/ha ([5]; 168 h, 560 g ae/ha, 7 DAA): 75% | pest or weed control at 280 g/ha ([5]; 336 h, 280 g ae/ha, 14 DAA): 85% | pest or weed control at 560 g/ha ([5]; 336 h, 560 g ae/ha, 14 DAA): 90% | pest or weed control at 280 g/ha ([5]; 504 h, 280 g ae/ha, 21 DAA): 90% | pest or weed control at 560 g/ha ([5]; 504 h, 560 g ae/ha, 21 DAA): 95% | TGA Data (rate of weight loss, volatility) [6]: 1 µg/min | pest or weed control at 280 g/ha ([7]; 168 h, 280 g ae/ha, 7 DAA): 67% | pest or weed control at 560 g/ha ([7]; 168 h, 560 g ae/ha, 7 DAA): 73% | pest or weed control at 280 g/ha ([7]; 336 h, 280 g ae/ha, 14 DAA): 75% | pest or weed control at 560 g/ha ([7]; 336 h, 560 g ae/ha, 14 DAA): 85% | pest or weed control at 280 g/ha ([7]; 504 h, 280 g ae/ha, 21 DAA): 81% | pest or weed control at 560 g/ha ([7]; 504 h, 560 g ae/ha, 21 DAA): 83%

O=C(COc1ccc(Cl)cc1Cl)n1ncc2ccccc21 [Compound D3, 2-(2,4-Dichlorophenoxy)-1-(1H-indazol-1-yl)ethanone]
pest or weed control at 280 g/ha ([1]; 168 h): 70% | pest or weed control at 560 g/ha ([1]; 168 h): 73% | pest or weed control at 280 g/ha ([1]; 336 h): 73% | pest or weed control at 560 g/ha ([1]; 336 h): 80% | pest or weed control at 280 g/ha ([1]; 504 h): 75% | pest or weed control at 560 g/ha ([1]; 504 h): 78% | pest or weed control at 280 g/ha ([2]; 168 h): 63% | pest or weed control at 560 g/ha ([2]; 168 h): 68% | pest or weed control at 280 g/ha ([2]; 336 h): 75% | pest or weed control at 560 g/ha ([2]; 336 h): 90% | pest or weed control at 280 g/ha ([2]; 504 h): 73% | pest or weed control at 560 g/ha ([2]; 504 h): 95% | pest or weed control at 280 g/ha ([3]; 168 h): 30% | pest or weed control at 560 g/ha ([3]; 168 h): 48% | pest or weed control at 280 g/ha ([3]; 336 h): 25% | pest or weed control at 560 g/ha ([3]; 336 h): 43% | pest or weed control at 280 g/ha ([3]; 504 h): 23% | pest or weed control at 560 g/ha ([3]; 504 h): 35% | pest or weed control at 280 g/ha ([4]; 168 h): 68% | pest or weed control at 560 g/ha ([4]; 168 h): 68% | pest or weed control at 280 g/ha ([4]; 336 h): 63% | pest or weed control at 560 g/ha ([4]; 336 h): 70% | pest or weed control at 280 g/ha ([4]; 504 h): 63% | pest or weed control at 560 g/ha ([4]; 504 h): 70% | pest or weed control at 280 g/ha ([5]; 168 h): 63% | pest or weed control at 560 g/ha ([5]; 168 h): 68% | pest or weed control at 280 g/ha ([5]; 336 h): 83% | pest or weed control at 560 g/ha ([5]; 336 h): 85% | pest or weed control at 280 g/ha ([5]; 504 h): 84% | pest or weed control at 560 g/ha ([5]; 504 h): 88% | TGA Data (rate of weight loss, volatility) [6]: 0.03 µg/min | pest or weed control at 280 g/ha ([7]; 168 h): 59% | pest or weed control at 560 g/ha ([7]; 168 h): 65% | pest or weed control at 280 g/ha ([7]; 336 h): 64% | pest or weed control at 560 g/ha ([7]; 336 h): 74% | pest or weed control at 280 g/ha ([7]; 504 h): 63% | pest or weed control at 560 g/ha ([7]; 504 h): 73%
